System: human iPS cells (1231A3 strain)
Assay: Form of cell aggregate in suspension culturing, bright field observation (good / medium / bad form)
Format: cell-based
Conditions: for cell aggregates with a bad form (not spherical, collapsed) / cell aggregates with a good form (spherical, smooth surface and dense inside) / cell aggregates with a medium form (spherical, forming cyst): day 6
Procedure: (§1) The above human iPS cells were treated with the cell dispersion solution by using TrypLE Select (Life Technologies), further dispersed into single cells by pipetting operation, and the above human iPS cells dispersed into single cells were suspended in 100 μl of a serum-free medium at 1.2×10^4 cells per well of a non-cell-adhesive 96-well culture plate (PrimeSurface 96V-bottom plate, manufactured by SUMITOMO BAKELITE), and subjected to suspension culturing at 37° C., 5% CO2. As the serum-free medium (gfCDM+KSR) therefor, a serum-free medium which is a 1:1 mixture of F-12 medium and IMDM medium supplemented with 10% KSR, 450 μM 1-monothioglycerol, and 1× Chemically defined lipid concentrate was used. At the time of the start of suspension culturing (day 0 after the start of suspension culturing, start of step 2), Y27632 (final concentration 20 μM) was added to the above serum-free medium. By day 2 after the start of suspension culturing, a cell aggregate was formed under both preconditioning conditions and conditions without preconditioning (step 2 completed, step 3 start). On day 3 after the start of suspension culturing, a serum-free medium (50 μl) free of Y27632 was added.
The thus-prepared cells on day 6 after the start of suspension culturing were subjected to bright field observation under an inverted microscope (KEYENCE) (FIG. 3).
Furthermore, bright field observation of the form of the cell aggregate on day 6 after the start of suspension culturing was performed under an inverted microscope, and the form was categorized into good form (FIG. 3C black bar, spherical, smooth surface and dense inside), medium form (FIG. 3 gray bar, spherical, forming cyst), and bad form (FIG. 3C white bar, not spherical, collapsed) and quantified.
as §1, with “μM 1-monothioglycerol, 1× Chemically” for “μM 1-monothioglycerol, and 1× Chemically”, “20 μM) and TGFβR inhibitor (SB431542, 5 μM) were added to” for “20 μM) was added to”, “of Y27632 and supplemented with a TGFβR inhibitor (SB431542, 5 μM) was added.” for “of Y27632 was added.”
The form of the thus-prepared cell aggregates on day 6 after the start of suspension culturing was observed according to the method described in Example 3.
The above human iPS cells were treated with the cell dispersion solution by using TrypLE Select (Life Technologies), further dispersed into single cells by pipetting operation, and the above human iPS cells dispersed into single cells were suspended in 100 μl of a serum-free medium at 1.2×10^4 cells per well of a non-cell-adhesive 96-well culture plate (PrimeSurface 96V-bottom plate, manufactured by SUMITOMO BAKELITE), and subjected to suspension culturing at 37° C., 5% CO2. As the serum-free medium (gfCDM+KSR) therefor, a serum-free medium which is a 1:1 mixture of F-12 medium and IMDM medium supplemented with 10% KSR, 450 μM 1-monothioglycerol and 1× Chemically defined lipid concentrate was used. […]

[1] = SB431542 5 μM in step 1 and in step 2 and step 3
[2] = no preconditioning in step 1, SB431542 5 μM added in step 2 and step 3

NC(=O)c1ccc(-c2nc(-c3ccc4c(c3)OCO4)c(-c3ccccn3)[nH]2)cc1 [SB431542, 4-(5-benzol[1,3]dioxol-5-yl-4-pyridin-2-yl-1H-imidazol-2-yl)-benzamide]
shape of cell aggregate compared with no preconditioning (SB431542 5 μM 1 day in step 1, day 6 of suspension culturing): better shape | cell aggregates with a bad form (not spherical, collapsed) [1]: about 0% | cell aggregates with a good form (spherical, smooth surface and dense inside) [1]: about 100% | cell aggregates with a medium form (spherical, forming cyst) [1]: about 0% | cell aggregates with a bad form (not spherical, collapsed) (SB431542 5 μM in step 1 only): about 0% | cell aggregates with a good form (spherical, smooth surface and dense inside) (SB431542 5 μM in step 1 only): about 100% | cell aggregates with a medium form (spherical, forming cyst) (SB431542 5 μM in step 1 only): about 0% | cell aggregates with a bad form (not spherical, collapsed) [2]: about 30% | cell aggregates with a good form (spherical, smooth surface and dense inside) [2]: about 10% | cell aggregates with a medium form (spherical, forming cyst) [2]: about 60%

— US12492373B2, “Production method for nerve tissue” (Racthera Co., Ltd., priority 2014, dated 2025)
